Reference: US11274332B2, “Methods of administering 3,4-diaminopyridine” (SERB SA, priority 2011, dated 2022)

Assay: Example 18: safety and tolerability in slow and fast acetylators
Type: in vivo, human
Description: The primary objective of the study was to assess the safety and tolerability of 3,4-DAP phosphate after single and multiple doses. The secondary objectives of the study were • Part 1 only: To determine the dose-related PK profile of amifampridine and of 3-N-acetyl amifampridine after single, escalating doses of 3,4-DAP phosphate • Part 2 only: To assess the steady-state plasma PK and accumulation of amifampridine and of 3-N-acetyl amifampridine over multiple days of dosing with 3,4-DAP phosphate An exploratory objective was to examine the overall activity of the N-acetyl transferase enzymes on the metabolism of amifampridine by assessing the PK of amifampridine and 3-N-acetyl amifampridine with phenotypic acetylation activity and genotyping determination of NAT2 gene polymorphisms. Study Design and Plan
Part 1 was a dose-proportionality study in 12 healthy subjects each receiving 4 ascending single oral doses of 3,4-DAP phosphate in a sequential manner (5 mg, 10 mg, 20 mg, and 30 mg). For all 12 subjects, the first 3 doses of oral 3,4-DAP phosphate (5-20 mg) were administered on 3 consecutive days (Days 1-3). Two fast and two slow acetylators (as defined by a caffeine challenge test in Example 15a) were selected as the first 4 enrolled subjects (sentinel subjects). For the 2 fast acetylators the 30 mg dose was administered on Day 4. […] Safety and tolerability data collected for all 4 subjects were reviewed and the safety and tolerability results of the 30 mg dose for these 4 sentinel subjects were acceptable. The 30 mg dose was given to the remaining 8 non-sentinel subjects on Day 7. Sentinel and non-sentinel subjects were released from the clinic on Day 5, Day 6, and Day 8 respectively, with all subjects returning for follow-tip assessments 2-4 days following their last dose.
Part 2, Group 1: Four sentinel subjects were selected after determining their acetylator status. Two were fast acetylators and two were slow acetylators. All four were dosed on Day 1 with 4 oral doses of 20 mg of 34-DAP phosphate (given at 4-hour dosing intervals). On Days […] and 2, safety and tolerability data was collected. Subjects left the clinic on Day 2. The safety and tolerability data collected for these 4 sentinel subjects were reviewed. The safety and tolerability results of Days 1 and 2 for these subjects were acceptable and thus Part 2 Group 2 was commenced. Minimally acceptable safety was defined as the absence of clinical seizure activity. Subjects in Group 1 returned to the clinic for their follow-up assessments 2-4 days following their last dose.
Each subject was given a final morning dose of 20 mg 3,4-DAP phosphate on Day 4. Subjects in Group 2 returned to the clinic for their follow-up assessments 2-4 days following their last dose.
Safety assessments: During the assessment period, the following safety measures were evaluated: vital signs, adverse events (AEs), 12-lead ECG, EEG and clinical laboratory tests.
Safety: Safety was assessed by the incidence of AEs, as well as changes in vital signs, 12-lead ECG, EEG, and clinical laboratory evaluations.
Safety: All subjects who received any amount of study drug in either Part 1 or Part 2 of this study and had post-dose safety information were included in the safety analyses. Safety was evaluated separately for Part 1 and Part 2 and was summarized by dose levels where appropriate. All verbatim AE terms were coded using Medical Dictionary for Regulatory Activities (MedDRA) terminology. Only treatment-emergent AEs (i.e., AEs with a start date on or after the first dose of study drug) were summarized. The incidence of AEs and SAEs were summarized for each study part by dose level, system, organ, class, preferred term, relationship to study drug, and severity. No deaths during the study, no discontinuations of study drug, and no withdrawals from the study and study drug due to an AE were observed.

Compound: Nc1ccncc1N.O=P(O)(O)O [amifampridine phosphate, 3,4-diaminopyridine phosphate]
- seizures (Part 1, 30 mg dose, sentinel subjects): No seizures were seen
- phenotype in which drug-related adverse events were observed (Part 1, single doses 5-30 mg): observed in slow acetylators only
- drug-related adverse events: % of subjects (Part 2, fast acetylators (7)): 43%
- drug-related adverse events: events (Part 2, fast acetylators (7)): six
- drug-related adverse events: subjects (Part 2, fast acetylators (7)): 3
- drug-related adverse events: % of subjects (Part 2, slow acetylators (7)): 86%
- drug-related adverse events: events (Part 2, slow acetylators (7)): Forty-five
- drug-related adverse events: subjects (Part 2, slow acetylators (7)): 6
- seizures (Part 2 Group 1, 20 mg x 4 on Day 1): No seizures occurred
- serious adverse events (Parts 1 and 2): no serious adverse events
- severity of treatment-emergent adverse events (Parts 1 and 2): mild and transient
